These are literature values, as cited in patent US8512957B2, “Toxicity typing using liver stem cells” (Vistagen Therapeutics, Inc., priority 2000, dated 2013).

The conditions of data set [1]: known toxicity class, printed in first toxicity column (Dev = developmental).
For another data set, the system named is liver. As to conditions: known toxicity of the drug, stated in words.

For `CCOC(=O)C(C)(C)Oc1ccc(Cl)cc1` [clofibrate], the “TOXICITIES EV” value in data set [1] is given as “tc”.
For `CCC(=O)O[C@H]1[C@H](O[C@@H]2[C@@H](C)[C@H](O[C@H]3C[C@@](C)(OC)[C@@H](O)[C@H](C)O3)[C@@H](C)C(=O)O[C@H](CC)[C@@](C)(O)[C@H](O)[C@@H](C)C(=O)[C@H](C)C[C@@]2(C)O)O[C@H](C)C[C@@H]1N(C)C` [erythromycin estolate], the liver toxicity result in the data set on liver is on record as “known liver toxicity”.
For `CN(CCOc1ccc(CC2SC(=O)NC2=O)cc1)c1ccccn1` (stereo not shown) [rosiglitazone], the “TOXICITIES EV” value in data set [1] is “tc”.
Turning to `Cc1c(C)c2c(c(C)c1O)CCC(C)(COc1ccc(CC3SC(=O)NC3=O)cc1)O2` (stereo not shown) [troglitazone], the liver toxicity result in the data set with liver is reported as “rare but severe liver toxicity”.
